These results are taken from US8664399B2, “Substituted heterocyclic compounds as ion channel modulators” (Gilead Sciences, Inc., priority 2008, dated 2014).

Molecules are shown by their SMILES.

The experiment deals with T1, human cardiac sodium channel, hNav1.5 (Homo sapiens, UniProt Q14524).
T1 construct: host or cells: HEK293
T1 sequence (Q14524 whole entry): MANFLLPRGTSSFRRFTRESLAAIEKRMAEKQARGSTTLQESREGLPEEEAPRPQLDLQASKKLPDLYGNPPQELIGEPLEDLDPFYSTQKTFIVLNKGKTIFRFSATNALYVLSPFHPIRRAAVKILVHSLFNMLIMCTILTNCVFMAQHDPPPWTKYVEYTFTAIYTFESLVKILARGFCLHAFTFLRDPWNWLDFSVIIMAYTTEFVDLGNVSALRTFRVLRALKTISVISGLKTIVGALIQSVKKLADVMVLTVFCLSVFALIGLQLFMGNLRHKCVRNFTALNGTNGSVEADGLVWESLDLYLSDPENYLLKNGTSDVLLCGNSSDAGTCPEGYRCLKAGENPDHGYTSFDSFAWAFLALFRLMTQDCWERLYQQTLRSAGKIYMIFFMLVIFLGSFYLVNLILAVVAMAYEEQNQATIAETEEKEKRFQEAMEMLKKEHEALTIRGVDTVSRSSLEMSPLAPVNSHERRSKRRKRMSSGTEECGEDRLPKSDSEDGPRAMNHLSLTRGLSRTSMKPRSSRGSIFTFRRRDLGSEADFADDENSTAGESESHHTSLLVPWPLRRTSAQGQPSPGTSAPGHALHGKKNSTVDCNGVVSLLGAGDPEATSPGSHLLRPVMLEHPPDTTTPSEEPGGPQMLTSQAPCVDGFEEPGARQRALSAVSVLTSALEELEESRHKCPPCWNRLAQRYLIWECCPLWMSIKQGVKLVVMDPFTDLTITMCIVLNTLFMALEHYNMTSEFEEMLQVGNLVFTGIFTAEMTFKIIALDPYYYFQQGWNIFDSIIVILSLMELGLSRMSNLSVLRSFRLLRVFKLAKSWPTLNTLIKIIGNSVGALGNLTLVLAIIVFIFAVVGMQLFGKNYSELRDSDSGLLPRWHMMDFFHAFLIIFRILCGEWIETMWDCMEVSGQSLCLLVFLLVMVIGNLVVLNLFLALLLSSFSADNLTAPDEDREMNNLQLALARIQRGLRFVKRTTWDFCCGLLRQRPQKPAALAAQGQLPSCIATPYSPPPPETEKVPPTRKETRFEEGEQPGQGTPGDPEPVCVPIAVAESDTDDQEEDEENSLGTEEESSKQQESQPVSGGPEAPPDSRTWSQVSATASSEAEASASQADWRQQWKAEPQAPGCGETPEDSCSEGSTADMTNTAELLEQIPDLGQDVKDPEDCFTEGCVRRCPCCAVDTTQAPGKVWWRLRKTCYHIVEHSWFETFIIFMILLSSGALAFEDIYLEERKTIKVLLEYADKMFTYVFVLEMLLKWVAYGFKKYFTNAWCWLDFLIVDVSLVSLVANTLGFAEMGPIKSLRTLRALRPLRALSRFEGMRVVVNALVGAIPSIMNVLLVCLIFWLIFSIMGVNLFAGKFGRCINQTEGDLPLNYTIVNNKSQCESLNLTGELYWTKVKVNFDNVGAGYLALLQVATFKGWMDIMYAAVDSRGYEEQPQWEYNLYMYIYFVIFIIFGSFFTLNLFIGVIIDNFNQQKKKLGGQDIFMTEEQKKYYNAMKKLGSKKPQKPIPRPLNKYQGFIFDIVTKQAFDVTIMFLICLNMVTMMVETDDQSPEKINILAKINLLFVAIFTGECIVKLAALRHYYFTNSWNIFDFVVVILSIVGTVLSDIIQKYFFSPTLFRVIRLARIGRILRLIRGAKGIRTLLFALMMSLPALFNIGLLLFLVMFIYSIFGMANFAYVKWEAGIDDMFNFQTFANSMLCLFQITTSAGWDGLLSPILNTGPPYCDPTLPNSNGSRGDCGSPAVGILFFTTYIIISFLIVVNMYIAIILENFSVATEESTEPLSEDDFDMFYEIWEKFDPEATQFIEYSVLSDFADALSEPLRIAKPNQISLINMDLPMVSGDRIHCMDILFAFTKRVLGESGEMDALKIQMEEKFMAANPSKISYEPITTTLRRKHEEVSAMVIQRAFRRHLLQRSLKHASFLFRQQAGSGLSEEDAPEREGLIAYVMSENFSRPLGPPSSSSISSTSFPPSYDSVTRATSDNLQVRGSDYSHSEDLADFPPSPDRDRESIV
The experiment can be described thus: Late INa screening assay (automated whole cell patch clamp, PatchXpress; late current generated with 10 μM Tefluthrin). The format is cell-based. Conditions: 10 μM test compound; HEK293 cells expressing hNav1.5; read-out: Late Ina % blk (10 μM test cmpd). On the procedure:
The late sodium current (Late INa) and peak sodium current (Peak INa) assays were performed on an automated electrophysiology platform, PatchXpress 7000A (MDS Analytical Technologies, Sunnyvale, Calif.), which uses the whole cell patch clamp technique to measure currents through the cell membrane of up to 16 cells at a time. The assay uses an HEK293 (human embryonic kidney) cell line heterologously expressing the wild-type human cardiac sodium channel, hNav1.5, purchased from Millipore (Billerica, Mass.). No beta subunits were coexpressed with the Na channel alpha subunit. Cells were maintained with standard tissue culture procedures and stable channel expression was maintained with 400 μg/ml Geneticin in the culture medium. Cells isolated for use on PatchXpress were incubated for 5 minutes in Versene 1X and then for 2 minutes in 0.0125% Trypsin-EDTA (both at 37° C.) to ensure that 80-90% of the cells are single and not part of a cell cluster. Experiments were carried out at 24-27° C.
For both the Late INa and Peak INa assays, series resistance compensation was set to 50% and whole-cell compensation is performed automatically. Currents were low-pass filtered at 10 kHz and digitized at 31.25 kHz. Currents through open sodium channels were automatically recorded and stored in the DataXpress2 database (MDS Analytical Technologies, Sunnyvale, Calif.). Analysis is performed using DataXpress2 analysis software and data are compiled in Excel.
Compound stocks were routinely made in glass vials to 10 mM in dimethyl sulfoxide (DMSO). In some cases, when compounds were not soluble in DMSO, they were made in 100% ethanol. Stocks were sonicated as necessary. The extracellular solution for screening Late INa was composed of: 140 mM NaCl, 4 mM KCl, 1.8 mM CaCl2, 0.75 mM MgCl2, and 5 mM HEPES with pH adjusted to 7.4 using NaOH. The extracellular solution for screening Peak INa was composed of: 20 mM NaCl, 120 mM N-methyl-D glucamine, 4 mM KCl, 1.8 mM CaCl2, 0.75 mM MgCl2, and 5 mM HEPES with pH adjusted to 7.4 using HCl. The intracellular solution used to perfuse the inside of the cells for both the Late INa and Peak INa assays contained: 120 mM CsF, 20 mM CsCl, 5 mM EGTA, 5 mM HEPES and pH adjusted to 7.4 with CsOH. […] The 0Na extracellular solution used at the end of each experiment for the Late INa and Peak INa assays to measure baseline current contained: 140 mM N-methyl-D-glucamine; 4 mM KCl; 1.8 mM CaCl2; 0.75 mM MgCl2; 5 mM HEPES and pH was adjusted to 7.4 with HCl.
For the Late INa assay, sodium channels were activated every 10 seconds (0.1 Hz) by depolarizing the cell membrane to −20 mV for 250 milliseconds (ms) from a holding potential of −120 mV. In response to a −20 mV voltage step, typical Nav1.5 sodium currents activate rapidly to a peak negative current and then inactivate nearly completely within 3-4 ms.
All compounds were tested to determine their activity in blocking the late sodium current. Late INa current was generated by adding 10 μM Tefluthrin (pyrethroid) to the extracellular solution while recording Na currents.
Turning to `Cc1nc2ccccc2c(-c2ccccc2)c1C(=O)OCc1ccccc1` [PT-001, benzyl 2-methyl-4-phenylquinoline-3-carboxylate], the inhibition at 10 µM was 78.3%.

As to `Cc1nc2ccc(Cl)cc2c(-c2ccccc2)c1C(=O)OC(C)(C)C` [PT-002, Tert-butyl 6-chloro-2-methyl-4-phenylquinoline-3-carboxylate], the inhibition at 10 µM turned out to be 61.1%.

As for `Cc1nc2ccc(Cl)cc2c(-c2ccccc2)c1C(=O)NCc1ccc(F)cc1` [PT-003, 6-chloro-N-(4-fluorobenzyl)-2-methyl-4-phenylquinoline-3-carboxamide], the inhibition at 10 µM worked out at 26.3%.

For the molecule `N#Cc1c(N)nc2ccc(Cl)cc2c1-c1ccccc1` [PT-004, 2-amino-6-chloro-4-phenylquinoline-3-carbonitrile], the inhibition at 10 µM was 15.2%.

As for `CCOC(=O)c1c(CCl)nc2ccc(Cl)cc2c1-c1ccccc1` [PT-006, ethyl 6-chloro-2-(chloromethyl)-4-phenylquinoline-3-carboxylate], the inhibition at 10 µM came out at 48.8%.

With `CCOC(=O)c1c(CN2C(=O)c3ccccc3C2=O)nc2ccc(Cl)cc2c1-c1ccccc1` [PT-007, ethyl 6-chloro-2-[(1,3-dioxo-1,3-dihydro-2H-isoindol-2-yl)methyl]-4-phenylquinoline-3-carboxylate], the inhibition at 10 µM came to 24%.

Take `CCOC(=O)c1c(COc2ccc(Cl)cc2OC)nc2ccc(Cl)cc2c1-c1ccccc1` [PT-011, ethyl 6-chloro-2-[(4-chloro-2-methoxyphenoxy)methyl]-4-phenylquinoline-3-carboxylate]: the inhibition at 10 µM is 18.1%.

Regarding `Cc1nc2ccc(Cl)cc2c(-c2ccccc2)c1C(=O)N1CCCCC1` [PT-013, (6-chloro-2-methyl-4-phenylquinolin-3-yl)(piperidin-1-yl)methanone], the inhibition at 10 µM was 30.2%.

Take `Cc1nc2ccc(Cl)cc2c(-c2ccccc2)c1C(=O)O[C@@H](C)c1ccccc1` [PT-014, (1S)-1-phenylethyl 6-chloro-2-methyl-4-phenylquinoline-3-carboxylate]: the inhibition at 10 µM turned out to be 36.1%.

In the case of `Cc1nc2ccc(Cl)cc2c(-c2ccccc2)c1C(=O)O[C@H](C)c1ccccc1` [PT-015, (1R)-1-phenylethyl 6-chloro-2-methyl-4-phenylquinoline-3-carboxylate], the inhibition at 10 µM turned out to be 37%.

Regarding `Cc1nc2ccc(Cl)cc2c(-c2ccccc2)c1C(=O)OCc1ccc(Cn2cccn2)cc1` [PT-018, 4-(1H-pyrazol-1-ylmethyl)benzyl 6-chloro-2-methyl-4-phenylquinoline-3-carboxylate], the inhibition at 10 µM was 54.5%.

With `Cc1nc2ccc(Cl)cc2c(-c2ccccc2Cl)c1C(=O)OC(C)(C)C` [PT-020, Tert-butyl 6-chloro-4-(2-chlorophenyl)-2-methylquinoline-3-carboxylate], the inhibition at 10 µM amounted to 32.9%.

In the case of `CCOC(=O)c1c(C)nc2ccc(Cl)cc2c1-c1ccccc1Cl` [PT-021, ethyl 6-chloro-4-(2-chlorophenyl)-2-methylquinoline-3-carboxylate], the inhibition at 10 µM was 70.2%.

In the case of `Cc1nc2ccc(Cl)cc2c(-c2ccccc2F)c1C(=O)OC(C)(C)C` [PT-022, Tert-butyl 6-chloro-4-(2-fluorophenyl)-2-methylquinoline-3-carboxylate], the inhibition at 10 µM is 46.9%.

On to `Cc1nc2ccc(Cl)cc2c(-c2ccccc2)c1C(C)O` (stereo not drawn) [PT-023, 1-(6-chloro-2-methyl-4-phenylquinolin-3-yl)ethanol], for which the inhibition at 10 µM was found to be 29.8%.

For `CCOC(=O)c1c(CN(C)C)nc2ccc(Cl)cc2c1-c1ccccc1` [PT-024, ethyl 6-chloro-2-[(dimethylamino)methyl]-4-phenylquinoline-3-carboxylate], the inhibition at 10 µM was 57.8%.

For the molecule `COC(=O)c1c(C)nc2ccccc2c1C` [PT-025, methyl 2,4-dimethylquinoline-3-carboxylate], the inhibition at 10 µM was 26.6%.

Turning to `CCOCc1nc2ccccc2c(C)c1C(=O)OCC` [PT-026, ethyl 2-(ethoxymethyl)-4-methylquinoline-3-carboxylate], the inhibition at 10 µM is 23.4%.
